# From ChEMBL document CHEMBL3603754, “Mitochondria and DNA Targeting of 5,10,15,20-Tetrakis(7-sulfonatobenzo[b]thiophene) Porphyrin-Induced Photodynamic Therapy via Intrinsic and Extrinsic Apoptotic Cell Death” (J Med Chem, 2015)
# The source made the active and inactive calls. The rule behind the calls is not given here.
# Key:
# MCF7 [1] = assay: Induction of extrinsic apoptosis in human MCF7 cells assessed as increase of casepase-3 level at 5 uM treated for 1 hr followed by irradiated with 660 nm of diode laser light at 50mW for 30 mins measured after 45 mins using (z-DEVD)2-Magic Red by fluorescence assay in presence of caspase-2 inhibitor; type: functional, cell-based
# MCF7 [2] = assay: Induction of mitochondrial membrane disruption in human MCF7 cells assessed as calcein-AM accumulation in cytosol treated for 1 hr followed by irradiated with 660 nm of diode laser light at 50mW for 30 mins measured after 45 mins by fluorescence assay; type: functional, cell-based
# [3] = Intracellular uptake in human MCF7 cell mitochondria at 10 uM after 4 hrs using mitotracker green staining by fluorescence microscopic analysis; type: ADME; conditions: mcf7, 4 h
# MCF7 [4] = assay: Cellular uptake in human MCF7 cells assessed as increase of intracellular fluorescence after 1 hr using alexa fluor 488, phalloidin 488/525, mito-tracker 490/516 staining by FACS analysis relative to control; type: ADME, cell-based; conditions: mcf7, 1 h
# MCF7 [5] = assay: Photo-toxicity in human MCF7 cells treated for 24 hrs followed by irradiated with 660 nm of diode laser light at 50mW for 30 mins measured after 24 hrs by MTT assay; type: functional, cell-based; conditions: MCF7, light or radiation study
# MCF7 [6] = assay: Induction of DNA fragmentation in human MCF7 cell nucleus treated at 5 uM followed by irradiated with 660 nm of diode laser light at 50mW for 30 mins by DNA ladder assay; type: functional, cell-based
# MCF7 [7] = assay: Induction of mitochondrial membrane disruption in human MCF7 cells assessed as calcein-AM accumulation in mitochondria treated for 1 hr followed by irradiated with 660 nm of diode laser light at 50mW for 30 mins measured after 45 mins by fluorescence assay; type: functional, cell-based
# MCF7 [8] = assay: Induction of extrinsic apoptosis in human MCF7 cells assessed as increase of casepase-3 level at 3 to 5 uM treated for 1 hr followed by irradiated with 660 nm of diode laser light at 50mW for 30 mins measured after 45 mins using (z-DEVD)2-Magic Red by fluorescence assay; type: functional, cell-based
# [9] = Intracellular uptake in human MCF7 cell lysosomes at 10 uM after 4 hrs using Hoechst staining by fluorescence microscopic analysis; type: ADME, cell-based, Lysosome; conditions: mcf7, 4 h
# MCF7 [10] = assay: (§1) Induction of extrinsic apoptosis in human MCF7 cells assessed as increase of […] level at 6 uM treated for 1 hr followed by irradiated with 660 nm of diode laser light at 50mW for 30 mins measured after 45 mins using (z-IETD)2-Rh110 by fluorescence assay in presence of caspase-8 inhibitor Z-IETD-FMK; type: functional, cell-based
# MCF7 [11] = assay: Induction of extrinsic apoptosis in human MCF7 cells assessed as increase of casepase-3 level at 5 uM treated for 1 hr followed by irradiated with 660 nm of diode laser light at 50mW for 30 mins measured after 45 mins using (z-DEVD)2-Magic Red by fluorescence assay; type: functional, cell-based
# [12] = Intracellular uptake in human MCF7 cell F-actin filament at 10 uM after 4 hrs using Hoechst staining by fluorescence microscopic analysis; type: ADME, cell-based; conditions: mcf7, 4 h
# MCF7 [13] = assay: Cellular uptake in human MCF7 cells assessed as increase of intracellular fluorescence up to 60 mins using alexa fluor 488, phalloidin 488/525, mito-tracker 490/516 staining by fluorescence microscopic analysis; type: ADME, cell-based; conditions: mcf7, 1 h
# MCF7 [14] = assay: Induction of ROS production in human MCF7 cells treated for 1 hr followed by irradiated with 660 nm of diode laser light at 50mW for 30 mins using DCFDA by fluorescence microscopic analysis; type: functional, cell-based
# MCF7 [15] = assay: Induction of extrinsic apoptosis in human MCF7 cells assessed as increase of casepase-3 level at 6 uM treated for 1 hr followed by irradiated with 660 nm of diode laser light at 50mW for 30 mins measured after 45 mins using (z-DEVD)2-Magic Red by fluorescence assay; type: functional, cell-based
# MCF7 [16] = assay: Dark toxicity in human MCF7 cells up to 40 uM after 24 hrs by MTT assay; type: cell-based; conditions: mcf7, 24 h
# [17] = Intracellular uptake in human MCF7 cell nucleus at 10 uM after 4 hrs using Hoechst staining by fluorescence microscopic analysis; type: ADME, cell-based; conditions: mcf7, 4 h
# [18] = Intracellular uptake in human MCF7 cell mitochondria at 10 uM after 4 hrs using Hoechst staining by fluorescence microscopic analysis; type: ADME; conditions: mcf7, 4 h
# MCF7 [19] = assay: as §1, with “(z-DEVD)2-Magic Red” for “(z-IETD)2-Rh110”; type: functional, cell-based
# MCF7 [20] = assay: Induction of intrinsic apoptosis in human MCF7 cells assessed as increase of casepase-9 level at 3 to 5 uM treated for 1 hr followed by irradiated with 660 nm of diode laser light at 50mW for 30 mins measured after 45 mins using (Ac-LEHD)2-Rh110 by fluorescence assay in presence of caspase-2 inhibitor; type: functional, cell-based
# MCF7 [21] = assay: Induction of intrinsic apoptosis in human MCF7 cells assessed as increase of casepase-9 level at 3 to 5 uM treated for 1 hr followed by irradiated with 660 nm of diode laser light at 50mW for 30 mins measured after 45 mins using (Ac-LEHD)2-Rh110 by fluorescence assay; type: functional, cell-based
# MCF7 [22] = assay: Cellular uptake in human MCF7 cells assessed as increase of intracellular fluorescence after 20 mins using alexa fluor 488, phalloidin 488/525, mito-tracker 490/516 staining by fluorescence microscopic analysis; type: ADME, cell-based; conditions: mcf7, 20 min
# MCF7 [23] = assay: Induction of mitochondrial membrane disruption in human MCF7 cells assessed as calcein-AM accumulation in mitochondria at 1 to 3 uM treated for 1 hr followed by irradiated with 660 nm of diode laser light at 50mW for 30 mins measured after 45 mins by fluorescence assay; type: functional, cell-based
# MCF7 [24] = assay: Induction of extrinsic apoptosis in human MCF7 cells assessed as increase of […] level at 6 uM treated for 1 hr followed by irradiated with 660 nm of diode laser light at 50mW for 30 mins measured after 45 mins using (z-IETD)2-Rh110 by fluorescence assay; type: functional, cell-based
smiles,measurement,setting,value
O=S(=O)([O-])c1cccc2cc(-c3c4nc(c(-c5cc6cccc(S(=O)(=O)[O-])c6s5)c5ccc([nH]5)c(-c5cc6cccc(S(=O)(=O)[O-])c6s5)c5nc(c(-c6cc7cccc(S(=O)(=O)[O-])c7s6)c6ccc3[nH]6)C=C5)C=C4)sc12.[Na+].[Na+].[Na+].[Na+],Activity,MCF7 [1],inactive
same,Activity,MCF7 [2],Dose-dependent effect
same,Drug uptake,[3],Active
same,fold change (FC),MCF7 [4],3
same,IC50,MCF7 [5],5 µM
same,Activity,MCF7 [6],Active
same,Activity,MCF7 [7],Dose-dependent effect
same,Activity,MCF7 [8],Active
same,Drug uptake,[9],Not Active
same,Activity,MCF7 [10],inactive
same,Activity,MCF7 [11],Active
same,Drug uptake,[12],Not Active
same,Drug uptake,MCF7 [13],Active
same,Activity,MCF7 [14],Dose-dependent effect
same,Activity,MCF7 [15],Active
same,Activity,MCF7 [16],Non-toxic
same,Drug uptake,[17],Active
same,Drug uptake,[18],Active
same,Activity,MCF7 [19],inactive
same,Activity,MCF7 [20],inactive
same,Activity,MCF7 [21],Active
same,Drug uptake,MCF7 [22],Active
same,Activity,MCF7 [23],Active
same,Activity,MCF7 [24],Active
O=S(=O)(O)c1ccc(-c2c3nc(c(-c4ccc(S(=O)(=O)O)cc4)c4ccc([nH]4)c(-c4ccc(S(=O)(=O)O)cc4)c4nc(c(-c5ccc(S(=O)(=O)O)cc5)c5ccc2[nH]5)C=C4)C=C3)cc1,IC50,MCF7 [5],11.8 µM
same,Drug uptake,[9],Active
